Values of other authors in US7592342B2, “Quinoxaline derivatives as PI3 kinase inhibitors” (SmithKline Beecham Corporation, priority 2007, dated 2009).

Target: CK2 protein kinase (Homo sapiens, UniProt P68400)
Settings: LY294002, literature

Chain of CK2 protein kinase (P68400 whole entry): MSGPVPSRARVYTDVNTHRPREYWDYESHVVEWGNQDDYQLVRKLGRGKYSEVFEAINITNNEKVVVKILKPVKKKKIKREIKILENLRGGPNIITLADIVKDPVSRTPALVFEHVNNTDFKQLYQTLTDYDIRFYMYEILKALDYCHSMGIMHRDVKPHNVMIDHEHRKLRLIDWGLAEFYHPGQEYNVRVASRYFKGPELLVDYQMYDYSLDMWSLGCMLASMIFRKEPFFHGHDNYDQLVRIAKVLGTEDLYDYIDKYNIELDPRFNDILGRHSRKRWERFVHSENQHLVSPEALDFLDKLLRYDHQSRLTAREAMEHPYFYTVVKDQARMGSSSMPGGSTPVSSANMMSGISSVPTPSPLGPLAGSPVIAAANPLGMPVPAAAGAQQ

Question: For `O=c1cc(N2CCOCC2)oc2c(-c3ccccc3)cccc12` [LY294002], which IC50 is on record?
Answer: 5 to 10 µM
